In general, AC50 refers to the concentration at which the activity in the assay is half-maximal. Higher therefore signals activity only at high concentration.

These results are taken from ChEMBL document CHEMBL5291721, “A preclinical secondary pharmacology resource illuminates target-adverse drug reaction associations of marketed drugs” (Nat Commun, 2023).

Assay [1] has as its target T1, Endothelin-1 receptor (Homo sapiens, UniProt P25101).
T1 sequence (P25101 whole entry): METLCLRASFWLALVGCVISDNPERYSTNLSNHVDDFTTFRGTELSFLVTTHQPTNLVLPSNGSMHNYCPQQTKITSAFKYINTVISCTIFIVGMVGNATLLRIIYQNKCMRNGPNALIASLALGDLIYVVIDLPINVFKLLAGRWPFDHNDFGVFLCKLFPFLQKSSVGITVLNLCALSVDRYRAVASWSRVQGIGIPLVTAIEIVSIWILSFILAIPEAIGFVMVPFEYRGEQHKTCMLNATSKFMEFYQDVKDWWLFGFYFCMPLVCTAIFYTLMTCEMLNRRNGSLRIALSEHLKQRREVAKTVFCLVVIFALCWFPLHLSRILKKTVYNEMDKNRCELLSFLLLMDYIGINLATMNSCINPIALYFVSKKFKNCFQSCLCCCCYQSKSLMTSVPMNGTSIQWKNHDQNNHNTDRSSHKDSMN

For assay [2], the target named is T2, Estrogen receptor (Homo sapiens, UniProt P03372).
T2 sequence (P03372 whole entry): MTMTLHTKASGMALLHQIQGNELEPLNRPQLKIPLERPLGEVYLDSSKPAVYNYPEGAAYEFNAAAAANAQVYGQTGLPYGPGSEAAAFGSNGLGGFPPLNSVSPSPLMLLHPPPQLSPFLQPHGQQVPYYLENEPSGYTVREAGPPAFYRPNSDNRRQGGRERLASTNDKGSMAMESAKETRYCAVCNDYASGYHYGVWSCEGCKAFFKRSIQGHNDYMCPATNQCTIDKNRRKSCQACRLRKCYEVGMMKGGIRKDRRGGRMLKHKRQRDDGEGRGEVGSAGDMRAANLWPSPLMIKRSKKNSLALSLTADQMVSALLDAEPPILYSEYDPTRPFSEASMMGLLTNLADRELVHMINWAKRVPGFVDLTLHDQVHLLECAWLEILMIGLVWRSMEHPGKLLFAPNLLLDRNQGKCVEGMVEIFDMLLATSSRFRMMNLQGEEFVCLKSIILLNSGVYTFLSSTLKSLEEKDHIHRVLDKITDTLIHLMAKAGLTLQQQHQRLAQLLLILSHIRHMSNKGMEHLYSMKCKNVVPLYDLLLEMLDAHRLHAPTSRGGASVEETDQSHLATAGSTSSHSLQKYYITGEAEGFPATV

Assay [3] deals with Histamine H3 receptor (Homo sapiens, UniProt Q9Y5N1).
Histamine H3 receptor, sequence (Q9Y5N1 whole entry): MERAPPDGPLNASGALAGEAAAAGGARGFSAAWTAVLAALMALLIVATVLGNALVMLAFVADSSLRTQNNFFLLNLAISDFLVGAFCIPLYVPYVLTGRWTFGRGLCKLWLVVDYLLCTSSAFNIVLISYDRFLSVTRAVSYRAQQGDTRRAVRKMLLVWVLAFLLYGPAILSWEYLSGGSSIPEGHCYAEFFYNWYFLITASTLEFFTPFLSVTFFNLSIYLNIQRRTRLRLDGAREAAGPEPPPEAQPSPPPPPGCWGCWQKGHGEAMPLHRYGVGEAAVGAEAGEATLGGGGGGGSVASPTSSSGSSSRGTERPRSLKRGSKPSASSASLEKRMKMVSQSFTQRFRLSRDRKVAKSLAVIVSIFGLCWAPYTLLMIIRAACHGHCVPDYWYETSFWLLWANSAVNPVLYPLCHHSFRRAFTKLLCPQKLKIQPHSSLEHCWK
The target of assay [4] is Neuronal acetylcholine receptor subunit alpha-4 (Homo sapiens, UniProt P43681).
Neuronal acetylcholine receptor subunit alpha-4, sequence (P43681 whole entry): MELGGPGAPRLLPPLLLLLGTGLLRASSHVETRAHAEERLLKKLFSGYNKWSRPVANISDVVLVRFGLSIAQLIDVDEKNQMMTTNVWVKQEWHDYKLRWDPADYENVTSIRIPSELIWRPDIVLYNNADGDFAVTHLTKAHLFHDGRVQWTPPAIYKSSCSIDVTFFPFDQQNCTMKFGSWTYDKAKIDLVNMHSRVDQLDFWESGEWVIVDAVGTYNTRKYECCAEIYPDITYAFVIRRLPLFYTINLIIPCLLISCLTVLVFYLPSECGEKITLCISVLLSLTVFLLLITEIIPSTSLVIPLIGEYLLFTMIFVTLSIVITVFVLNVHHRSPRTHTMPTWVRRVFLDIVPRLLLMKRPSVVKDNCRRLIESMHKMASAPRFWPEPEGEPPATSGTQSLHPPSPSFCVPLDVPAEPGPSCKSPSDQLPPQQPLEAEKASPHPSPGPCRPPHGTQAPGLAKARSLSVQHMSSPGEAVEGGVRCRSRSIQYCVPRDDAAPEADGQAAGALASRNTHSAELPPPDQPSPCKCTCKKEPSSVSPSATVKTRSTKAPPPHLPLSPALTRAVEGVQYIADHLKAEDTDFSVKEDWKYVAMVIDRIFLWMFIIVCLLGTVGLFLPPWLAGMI
The target in assay [5] is T3, 5-hydroxytryptamine receptor 3A (Homo sapiens, UniProt P46098).
T3 sequence (P46098 whole entry): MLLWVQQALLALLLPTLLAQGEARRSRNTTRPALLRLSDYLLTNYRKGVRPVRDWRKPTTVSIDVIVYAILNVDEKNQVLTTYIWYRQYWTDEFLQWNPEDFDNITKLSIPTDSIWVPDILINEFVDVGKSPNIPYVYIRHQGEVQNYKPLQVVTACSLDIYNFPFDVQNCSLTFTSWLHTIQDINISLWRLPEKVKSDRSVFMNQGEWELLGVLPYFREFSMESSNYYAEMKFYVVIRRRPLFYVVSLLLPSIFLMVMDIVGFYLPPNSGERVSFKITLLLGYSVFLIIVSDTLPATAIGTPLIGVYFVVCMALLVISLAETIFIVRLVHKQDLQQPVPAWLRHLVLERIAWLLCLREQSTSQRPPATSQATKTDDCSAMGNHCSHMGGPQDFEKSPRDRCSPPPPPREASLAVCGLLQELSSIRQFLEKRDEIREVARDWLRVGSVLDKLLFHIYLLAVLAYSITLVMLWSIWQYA
Type of assay: functional.

The target in assay [6] is T4, Gamma-aminobutyric acid receptor subunit alpha-1 (Rattus norvegicus, UniProt P62813).
T4 sequence (P62813 whole entry): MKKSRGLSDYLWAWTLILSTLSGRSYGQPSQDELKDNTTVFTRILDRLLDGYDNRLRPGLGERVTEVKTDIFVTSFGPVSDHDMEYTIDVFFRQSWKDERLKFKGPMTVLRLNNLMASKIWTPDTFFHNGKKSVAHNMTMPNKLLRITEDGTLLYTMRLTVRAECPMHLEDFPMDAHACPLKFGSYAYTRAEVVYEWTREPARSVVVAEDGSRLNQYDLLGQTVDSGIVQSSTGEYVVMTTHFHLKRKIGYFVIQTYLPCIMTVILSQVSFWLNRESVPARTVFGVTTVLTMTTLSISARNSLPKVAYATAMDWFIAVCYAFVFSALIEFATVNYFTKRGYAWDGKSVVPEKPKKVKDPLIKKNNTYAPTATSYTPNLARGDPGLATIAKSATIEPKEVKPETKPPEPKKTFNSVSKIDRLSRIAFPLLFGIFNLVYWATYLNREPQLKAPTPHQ
The target in assay [7] is Beta-2 adrenergic receptor (Homo sapiens, UniProt P07550). Type of assay: functional, cell-based.
Beta-2 adrenergic receptor, sequence (P07550 whole entry): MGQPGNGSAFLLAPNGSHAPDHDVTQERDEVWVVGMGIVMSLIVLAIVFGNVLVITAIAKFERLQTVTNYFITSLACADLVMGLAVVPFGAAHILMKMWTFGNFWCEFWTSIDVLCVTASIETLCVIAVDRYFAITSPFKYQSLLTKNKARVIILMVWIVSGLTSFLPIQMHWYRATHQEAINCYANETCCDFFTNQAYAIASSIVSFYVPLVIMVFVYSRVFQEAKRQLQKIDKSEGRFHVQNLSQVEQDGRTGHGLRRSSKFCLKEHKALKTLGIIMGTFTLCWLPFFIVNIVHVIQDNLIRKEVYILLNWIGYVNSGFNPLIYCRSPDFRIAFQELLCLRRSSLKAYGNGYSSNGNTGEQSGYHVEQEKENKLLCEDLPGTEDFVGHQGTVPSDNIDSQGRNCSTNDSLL
Assay [8] has as its target Motilin receptor (Homo sapiens, UniProt O43193).
The target of assay [9] is T5, Muscarinic acetylcholine receptor M2 (Homo sapiens, UniProt P08172).
T5 sequence (P08172 whole entry): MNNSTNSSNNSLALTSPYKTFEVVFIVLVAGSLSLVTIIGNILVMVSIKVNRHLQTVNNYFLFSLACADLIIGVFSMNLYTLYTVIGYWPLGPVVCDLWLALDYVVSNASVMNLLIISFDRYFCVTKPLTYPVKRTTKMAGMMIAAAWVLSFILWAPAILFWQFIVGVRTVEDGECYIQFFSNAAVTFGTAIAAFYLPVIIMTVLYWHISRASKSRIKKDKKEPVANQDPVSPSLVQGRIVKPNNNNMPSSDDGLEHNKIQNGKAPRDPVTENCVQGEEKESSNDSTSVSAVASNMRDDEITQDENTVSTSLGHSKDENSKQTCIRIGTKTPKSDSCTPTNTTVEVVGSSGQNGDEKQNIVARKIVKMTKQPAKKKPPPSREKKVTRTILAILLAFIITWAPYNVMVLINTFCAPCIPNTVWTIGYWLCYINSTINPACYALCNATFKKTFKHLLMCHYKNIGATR
Type of assay: functional, cell-based.

Assay [10] addresses Cannabinoid receptor 1 (Homo sapiens, UniProt P21554). It counts as functional, cell-based.
In assay [11] the target is Glutamate receptor ionotropic, NMDA 1 (Rattus norvegicus, UniProt P35439).
In assay [12] the target is T4, Gamma-aminobutyric acid receptor subunit alpha-1. This is another data set of the same source.
Assay [13] has as its target T6, Alpha-1A adrenergic receptor (Homo sapiens, UniProt P35348).
T6 sequence (P35348 whole entry): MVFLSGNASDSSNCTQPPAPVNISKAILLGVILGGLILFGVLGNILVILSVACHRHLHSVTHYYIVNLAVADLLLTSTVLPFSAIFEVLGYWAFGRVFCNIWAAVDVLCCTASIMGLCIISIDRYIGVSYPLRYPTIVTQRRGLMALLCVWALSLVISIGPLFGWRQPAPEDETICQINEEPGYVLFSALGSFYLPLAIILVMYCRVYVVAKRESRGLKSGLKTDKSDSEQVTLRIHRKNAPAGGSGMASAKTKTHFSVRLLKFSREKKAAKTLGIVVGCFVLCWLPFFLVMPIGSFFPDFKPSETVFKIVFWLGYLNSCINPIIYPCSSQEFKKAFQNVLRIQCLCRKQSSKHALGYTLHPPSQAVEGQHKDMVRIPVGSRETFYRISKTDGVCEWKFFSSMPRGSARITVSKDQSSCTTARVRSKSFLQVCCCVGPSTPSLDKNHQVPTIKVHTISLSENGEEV
It counts as functional, cell-based.
Further: assay procedure not described here.

Motilin receptor, sequence (O43193 whole entry): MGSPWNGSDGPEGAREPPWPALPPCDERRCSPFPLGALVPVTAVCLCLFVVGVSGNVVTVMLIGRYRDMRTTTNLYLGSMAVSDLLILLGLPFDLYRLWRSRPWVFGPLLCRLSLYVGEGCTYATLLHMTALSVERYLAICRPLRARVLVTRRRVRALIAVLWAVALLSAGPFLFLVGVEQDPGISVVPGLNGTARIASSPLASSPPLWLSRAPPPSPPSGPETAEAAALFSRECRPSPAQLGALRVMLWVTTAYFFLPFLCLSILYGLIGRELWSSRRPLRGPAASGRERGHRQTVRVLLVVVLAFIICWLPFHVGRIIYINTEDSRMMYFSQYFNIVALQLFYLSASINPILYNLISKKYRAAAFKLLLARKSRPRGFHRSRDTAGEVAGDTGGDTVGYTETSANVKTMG
Cannabinoid receptor 1, sequence (P21554 whole entry): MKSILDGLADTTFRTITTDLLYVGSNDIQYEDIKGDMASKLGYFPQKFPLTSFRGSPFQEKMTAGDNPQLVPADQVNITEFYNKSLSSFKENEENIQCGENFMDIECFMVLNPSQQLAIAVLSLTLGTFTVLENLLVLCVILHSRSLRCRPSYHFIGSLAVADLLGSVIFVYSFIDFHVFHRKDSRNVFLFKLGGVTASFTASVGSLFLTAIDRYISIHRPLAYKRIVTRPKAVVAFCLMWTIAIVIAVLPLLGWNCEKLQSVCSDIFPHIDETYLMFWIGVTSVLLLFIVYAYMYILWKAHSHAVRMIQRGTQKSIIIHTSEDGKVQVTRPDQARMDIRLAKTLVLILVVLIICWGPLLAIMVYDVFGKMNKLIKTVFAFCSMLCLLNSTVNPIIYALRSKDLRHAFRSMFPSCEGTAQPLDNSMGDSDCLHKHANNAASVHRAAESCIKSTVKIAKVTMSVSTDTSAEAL

Regarding `CCCc1nc2c(C)cc(-c3nc4ccccc4n3C)cc2n1Cc1ccc(-c2ccccc2C(=O)O)cc1`, the AC50 in assay [1], in assay [2], in assay [3], in assay [4], in assay [5] and in [6] was more than 30 µM in each case. The AC50 in [7], in [8], in [9], in [10], in assay [11] and in assay [12] was more than 30 µM each time.
Turning to `C[N+](C)(C)CCOP(=O)(O)OP(=O)([O-])OC[C@H]1O[C@@H](n2ccc(N)nc2=O)[C@H](O)[C@@H]1O` [CITICOLINE], the AC50 in assay [13], in assay [2], in assay [5], in assay [6], in [7] and in [9] was more than 30 µM throughout. Besides, the AC50 in assay [10], in assay [11] and in [12] was more than 30 µM throughout.
As for `O=C(O)Cc1ccccc1Oc1ccc(Cl)cc1Cl` [FENCLOFENAC], the AC50 in assay [13] is more than 30 µM; in [1], more than 30 µM; in assay [2], more than 30 µM; in [3] it was more than 10 µM; in assay [4], more than 10 µM; in assay [5], more than 30 µM. Also, the AC50 was more than 30 µM in [6]; more than 30 µM in [7]; more than 10 µM in [8]; more than 10 µM in assay [9]; more than 30 µM in [10]; more than 10 µM in assay [11]. The AC50 in assay [12] is more than 10 µM.
In the case of `Cc1ccc(C)c(OCCCC(C)(C)C(=O)O)c1` [GEMFIBROZIL], the AC50 in assay [13] was more than 30 µM; in assay [1], more than 30 µM; in assay [2] it was more than 30 µM; in [3], more than 10 µM; in [4], more than 10 µM; in assay [5], more than 30 µM. Besides, the AC50 is more than 30 µM in assay [6]; more than 30 µM in assay [7]; more than 10 µM in assay [8]; more than 10 µM in [9]; more than 30 µM in assay [10]; more than 10 µM in [11]. This molecule showed a concentration at half-maximal activity (AC50) in [12] of more than 10 µM.
Regarding `COc1cc(C(C)=O)ccc1OCCCN1CCC(c2noc3cc(F)ccc23)CC1` [ILOPERIDONE], the AC50 was 0.003 µM in assay [13]; more than 30 µM in assay [1]; more than 30 µM in assay [2]; more than 30 µM in [3]; 2 µM in assay [4]; more than 30 µM in assay [5]. Further, the AC50 in assay [6], in assay [7], in assay [8], in [9] and in assay [10] was more than 30 µM throughout.
Consider `O=C1Cc2cc(CCN3CCN(c4nsc5ccccc45)CC3)c(Cl)cc2N1` [ZIPRASIDONE], for which the AC50 in assay [13] was 0.0179 µM; in assay [1] it was more than 30 µM; in [2], more than 30 µM; in [3] it was more than 30 µM; in assay [4] it was more than 10 µM; in assay [5], more than 10 µM. In addition, the concentration at half-maximal activity (AC50) was more than 30 µM in assay [6]; more than 30 µM in assay [7]; more than 10 µM in assay [8]; more than 10 µM in [9]; more than 30 µM in assay [10]; more than 10 µM in [11]. Further, the half-maximal activity concentration (AC50) in [12] was more than 10 µM.
